According to patent US10322995B2, “Substituted cyano cycloalkyl penta-2,4-dienes, cyano cycloalkyl pent-2-en-4-ynes, cyano heterocyclyl penta-2,4-dienes and cyano heterocyclyl pent-2-en-4-ynes as active substances against abiotic plant stress” (BAYER CROPSCIENCE AKTIENGESELLSCHAFT, priority 2014, dated 2019):

Experiments:
Brassica napus (BRSNS) [1] = assay: In vivo analyses Part C: drought stress, appearance vs stressed control plants in categories (BRSNS); parameters: key: 0: no positive effect; 10: slight positive effect; 20: clear positive effect; 30: strong positive effect; conditions: appearance vs stressed control plants after recovery phase, efficacy range of 3-4 pots
Protocol: Seeds of monocotyledonous and dicotyledonous crop plants were sown in sandy loam in plastic or wood-fibre pots, covered with soil or sand and cultivated in a greenhouse under good growth conditions. The test plants were treated at the early leaf stage (BBCH10-BBCH13). To assure uniform water supply before commencement of stress, the potted plants were supplied with water by dam irrigation prior to substance application. The inventive compounds were first formulated as wettable powders (WP) or dissolved in a solvent mixture. The further dilution was effected with water supplemented with 0.2% wetting agent (e.g. agrotin). The finished spray liquor was sprayed onto the green parts of the plant at an equivalent water application rate of 600 I/ha. Substance application was followed immediately by stress treatment of the plants. For this purpose, the wood-fibre pots were transferred in plastic inserts in order to prevent them from subsequently drying out too quickly. Drought stress was induced by gradual drying out under the following conditions: “Day”: 14 hours with illumination at 26-30° C. “Night”: 10 hours without illumination at 18-20° C. The duration of the respective stress phases was guided mainly by the condition of the stressed control plants. It was ended (by re-irrigating and transfer to a greenhouse with good growth conditions) as soon as irreversible damage was observed on the stressed control plants. The end of the stress phase was followed by an about 4-7-day recovery phase, during which the plants were once again kept under good growth conditions in a greenhouse. The duration of the recovery phase was guided mainly by when the trial plants had attained a state which enabled visual scoring of potential effects, and was therefore variable. Once this juncture had been reached, the appearance of the plants treated with test substances was recorded in comparison to the stressed control plants by the following categories: [table] For each substance and dosage, 3-4 pots were treated and evaluated. BRSNS=Brassica napus

[2] = system: Triticum aestivum (TRZAS); assay: In vivo analyses Part A: drought stress, visual damage scoring, efficacy EF (TRZAS); conditions: spray application 25 g/ha, efficacy = reduction in damage intensity
Protocol: (§1) Seeds of monocotyledonous and dicotyledonous crop plants were sown in sandy loam in wood-fibre pots, covered with soil or sand and cultivated in a greenhouse under good growth conditions. The test plants were treated at the early leaf stage (BBCH10-BBCH13). To assure uniform water supply before commencement of stress, the potted plants were supplied with water by dam irrigation prior to substance application. The inventive compounds, formulated in the form of wettable powders (WP), were sprayed onto the green parts of the plants as an aqueous suspension at an equivalent water application rate of 600 I/ha with addition of 0.2% wetting agent (e.g. agrotin). Substance application was followed immediately by stress treatment of the plants. For this purpose, the pots were transferred in plastic inserts in order to prevent them from subsequently drying out too quickly. Drought stress was induced by gradual drying out under the following conditions: “Day”: 14 hours with illumination at 26° C. “Night”: 10 hours without illumination at 18° C. The duration of the respective stress phases was guided mainly by the condition of the stressed control plants. It was ended (by re-irrigating and transfer to a greenhouse with good growth conditions) as soon as irreversible damage was observed on the stressed control plants. The end of the stress phase was followed by an about 4-7-day recovery phase, during which the plants were once again kept under good growth conditions in a greenhouse. The duration of the recovery phase was guided mainly by when the trial plants had attained a state which enabled visual scoring of potential effects, and was therefore variable. Once this juncture was reached, the intensities of damage were scored visually in comparison to untreated, unstressed controls of the same age. The damage intensity was at first assessed in percent. […]

Brassica napus (BRSNS) [3] = assay: In vivo analyses Part A: drought stress, visual damage scoring, efficacy EF (BRSNS); conditions: spray application 250 g/ha, efficacy = reduction in damage intensity
Protocol: as §1

| SMILES | Effect (BRSNS) (Brassica napus (BRSNS) [1]; dosage 25 g/ha) | Effect (BRSNS) (Brassica napus (BRSNS) [1]; dosage 250 g/ha) | EF [%] (TRZAS) [2] | EF [%] (BRSNS) (Brassica napus (BRSNS) [3]) |
| --- | --- | --- | --- | --- |
| CC/C(C#CC(O)(C1CCC1)C1(C#N)CC1)=C/C(=O)OC (stereo not drawn) [I.1-648] | 30 | – | – | – |
| CCC(C=CC(O)(c1ccccc1)C1(C#N)CC1)=CC(=O)O (racemic) [I.2-201] | – | 10-30 | – | – |
| CCOC(=O)/C=C(\C#CC(O)(C(C)C)C1(C#N)CC1)C1CC1 (stereo not drawn) [I.1-124, Ethyl (2Z)-6-(1-cyanocyclopropyl)-3-cyclopropyl-6-hydroxy-7-methyloct-2-en-4-ynoate] | – | – | >5 | >5 |
| CCOC(=O)/C=C(/C)C#CC(O)(C(C)C)C1(C#N)CC1 (stereo not drawn) [I.1-136] | – | – | >5 | >5 |
